Read-outs that look alike come from different tables or passages of the source.
Experiments:
5-HT2A receptors = 5-HT2A receptors (Homo sapiens (Human), UniProt P28223); assay: 5-HT2A receptor radioligand competition binding assay ([3H]-ketanserin); conditions: for Ki: read-out: Ki
Protocol: The affinity of the compounds of the present disclosure for 5-HT2A receptors was determined by a radioligand competition binding assay. In the first step, a cell membrane component containing specific 5-HT2A receptor was prepared. A 10 cm dish was used for transfection with […] of 5-HT2A receptors and 40 μL of PEI. After 48 hours, the 10 cm dish was taken out from the cell incubator and the cultured cells had expressed the 5-HT2A receptors. A vacuum pump was used to suck off the culture medium, 3 mL of lysis buffer was added to each culture dish, and the cells were placed in a 4° C. cold room for 10 minutes. After the cells were detached, the cells were transferred to a 15 mL centrifuge tube and centrifuged at 1500 rpm for 5 minutes at 4° C., and the supernatant was discarded. The cell pellet was transferred to a tissue homogenizer, and 3 mL of lysis buffer was added and fully ground until the cells were broken. Then, cell suspension was equally aliquoted into several EP tubes, centrifuged at 12000 rpm for 5 minutes at 4° C., and the supernatant was discarded. The precipitate was the cell membrane component containing the 5-HT2A receptors. […] First, a standard binding buffer was added to the cell membrane component containing the 5-HT2A receptors, and the cell membrane was disrupted and resuspended with an electric tissue homogenizer. 30 μL of membrane protein suspension was added to each well of a 96-well plate. Then, 30 μL of different drugs were added to the 96-well plate sequentially from bottom to top to ensure that the final drug concentrations were 10^−5 M, 10^−6 M, 10^−7 M, 10^−8 M, 10^−9 M, and 0 M, with two replicates per treatment. Next, 30 μL of [^3H]-ketanserin was added to each well of the 96-well plate. The plate was incubated at room temperature in the dark for 2 hours. Detection was conducted. The machine readout value reflected the amount of [^3H]-ketanserin bound on the membrane, and after further data processing, the affinity Ki values of different compounds for the 5-HT2A receptors were obtained.

[1] = Pharmacokinetics in SD rats, single dose intragastric and intravenous; format: in vivo; conditions: for Cmax / half-life / Vd / AUC(0-t) / clearance / MRT / bioavailability / Tmax: male, rat, plasma; for half-life: read-out: Elimination half-life t1/2 (converted); for Vd: read-out: Apparent volume of distribution Vdss; for AUC(0-t): read-out: Area under the drug-time curve AUC0-t; for clearance: read-out: Clearance CL; for MRT: read-out: Mean residence time MRT; for bioavailability: read-out: Bioavailability F; for Tmax: read-out: Time to peak concentration tmax
Protocol: Testing of pharmacokinetic properties of compounds administered in a single dose to SD rats by intragastric administration and intravenous injection
After the compound was administered in a single dose to male SD rats, blood samples were collected at different time points. The concentration of the compound in the plasma of the rats was determined by LC-MS/MS and the relevant pharmacokinetic parameters were calculated to investigate the pharmacokinetics of the compound in rats.
Male SD rats were provided by Suzhou JOINN Laboratories Co., Ltd. SD rats were fasted with free access to water for 12 to 14 hours one day before administration, and were fed 4 hours after administration.
For each compound, the […] were divided into two groups: intravenous injection and intragastric administration, with 3 rats in each group. For both intravenous injection (administered at a dose of 3 mg/kg and a concentration of 0.6 mL/kg) and intragastric administration (administered at a dose of 10 mg/kg and a concentration of 1 mL/kg), 5% DMSO+5% Solutol+90% saline was used as the vehicle.
Sample collection: 0.10 mL of blood was collected from the orbit of each animal in IV/PO groups each time at 5 minutes, 15 minutes, 30 minutes, 1 hour, 2 hours, 4 hours, 6 hours, 8 hours, and 24 hours after administration of the test compound, and anticoagulated with EDTA-K2. Blood samples were placed on ice after collection, and plasma was separated by centrifugation within 30 minutes (centrifugation conditions: 5000 rpm, 10 minutes, 4° C.). The collected plasma was stored at −80° C. before analysis.
Data processing: The data acquisition and control system software was Analyst 1.5.1 software (Applied Biosystem). The peak integration method of chromatographic samples was automatic integration; the ratio of the peak area of the sample to the peak area of the internal standard was used as an index for regression with the concentration of the sample. […] Pharmacokinetic parameters were analyzed with a non-compartmental model using WinNonlin Professional v6.3 (Pharsight, USA). Cmax was the measured maximum plasma concentration, the area under the plasma concentration-time curve AUC(0→t) was calculated by the trapezoidal method, and tmax was the time to peak plasma concentration after administration. Experimental data were presented as “Mean±SD” (n≥3) or “Mean” (n=2).

[2] = [3H]-ketanserin, 293T membranes
[3] = intravenous injection, 3 mg/kg, read-out: Peak drug concentration C0 or Cmax
[4] = oral administration, 10 mg/kg, read-out: Peak drug concentration Cmax

Chain of 5-HT2A receptors (P28223 whole entry): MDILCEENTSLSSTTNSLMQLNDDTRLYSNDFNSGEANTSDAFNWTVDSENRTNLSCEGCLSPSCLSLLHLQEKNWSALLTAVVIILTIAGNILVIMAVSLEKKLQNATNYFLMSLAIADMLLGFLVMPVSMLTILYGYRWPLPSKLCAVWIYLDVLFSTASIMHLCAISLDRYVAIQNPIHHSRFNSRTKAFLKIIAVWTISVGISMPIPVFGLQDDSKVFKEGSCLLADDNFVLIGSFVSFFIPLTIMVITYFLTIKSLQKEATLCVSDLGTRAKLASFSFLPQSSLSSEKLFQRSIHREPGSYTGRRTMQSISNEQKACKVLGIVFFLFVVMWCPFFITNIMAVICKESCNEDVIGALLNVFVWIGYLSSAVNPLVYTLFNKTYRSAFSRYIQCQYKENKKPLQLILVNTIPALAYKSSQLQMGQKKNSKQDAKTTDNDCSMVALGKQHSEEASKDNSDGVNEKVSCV

Row | Structure (SMILES) | affinity for 5-HT2A receptors (in words) (5-HT2A receptors) | Ki (5-HT2A receptors; [2]) [nM] | Cmax [1, 3] [ng/mL] | half-life ([1]; oral administration, 10 mg/kg) [h] | Vd ([1]; intravenous injection, 3 mg/kg) [L/kg] | AUC(0-t) ([1]; intravenous injection, 3 mg/kg) [ng·h/mL] | clearance ([1]; intravenous injection, 3 mg/kg) [mL/min/kg] | half-life ([1]; intravenous injection, 3 mg/kg) [h] | MRT ([1]; intravenous injection, 3 mg/kg) [h] | AUC(0-t) ([1]; oral administration, 10 mg/kg) [ng·h/mL] | bioavailability ([1]; oral administration, 10 mg/kg) [%] | MRT ([1]; oral administration, 10 mg/kg) [h] | Cmax [1, 4] [ng/mL] | Tmax ([1]; oral administration, 10 mg/kg) [h] | other results
1 | COc1cccc2c3c(oc12)CN(CCCCOc1ccc2ccc(=O)[nH]c2c1)CC3 [I-A1, 7-(4-(8-methoxy-3,4-dihydrobenzofuro[2,3-c]pyridin-2(1H)-yl)butoxy)quinolin-2(1H)-one] | very weak affinity | 1790 | 1330 ± 117 | 3.91 ± 0.3 | – | – | – | – | – | – | – | – | – | – | pKi ± SEM (5-HT2A receptors; [2]): (5.74 ± 0.03); Area under the drug-time curve AUC0-t ([1]; intravenous injection, 3 mg/kg): 2991 ± 212 ng·h/mL; Clearance CL ([1]; intravenous injection, 3 mg/kg): 16.7 ± 1.12 mL/min/kg; Elimination half-life t1/2 ([1]; intravenous injection, 3 mg/kg): 3.48 ± 0.1 h; Area under the drug-time curve AUC0-t ([1]; oral administration, 10 mg/kg): 8916 ± 3642 ng·h/mL; Bioavailability F ([1]; oral administration, 10 mg/kg): 88.8 ± 36%; Peak drug concentration Cmax ([1]; oral administration, 10 mg/kg): 1555 ± 362 ng/mL; Time to peak concentration tmax ([1]; oral administration, 10 mg/kg): 0.50 ± 0 h
2 | COc1cccc2c3c(oc12)CN(CC[C@H]1CC[C@H](NC(=O)N(C)C)CC1)CC3 [I-A12, 3-(trans-4-(2-(8-methoxy-3,4-dihydrobenzofuro[2,3-c]pyridin-2(1H)-yl)ethyl)cyclohexyl)-1,1-dimethylurea] | – | – | 824 ± 299 | 3.58 ± 0.5 | 9.14 ± 1.5 | 1100 ± 215 | 45.4 ± 7.9 | 4.14 ± 0.7 | 3.36 ± 0.2 | 5660 ± 2660 | 151 ± 71 | 4.42 ± 0.66 | 963 ± 322 | 0.833 ± 1 | –
3 | COc1cccc2c3c([nH]c12)CN(CC[C@H]1CC[C@H](NC(=O)N(C)C)CC1)CC3 [I-B7, 3-(trans-4-(2-(8-methoxy-1,3,4,9-tetrahydro-2H-pyrido[3,4-b]indol-2-yl)ethyl)cyclohexyl)-1,1-dimethylurea] | very weak affinity | 3510 | 330 ± 61 | 5.12 ± 0.7 | 7.56 ± 0.4 | 2350 ± 127 | 21 ± 1.2 | 3.91 ± 0.3 | 6.01 ± 0.2 | 10200 ± 945 | 128 ± 12 | 8.08 ± 0.23 | 734 ± 34 | 3.17 ± 4 | –
4 | COc1cccc2c1cc1n2CCN(CCCCOc2ccc3ccc(=O)[nH]c3c2)C1 [I-C1, 7-(4-(9-methoxy-3,4-dihydropyrazino[1,2-a]indol-2(1H)-yl)butoxy)quinolin-2(1H)-one] | – | – | 3310 ± 349 | 7.36 ± 4.2 | 2.16 ± 0.1 | 4970 ± 751 | 10.1 ± 1.4 | 3.63 ± 0.7 | 3.58 ± 0.3 | 8140 ± 2050 | 48.8 | 10 ± 6.5 | 1150 ± 198 | 0.25 | –
5 | COc1cccc2c1cc1n2CCN(CCCCOc2ccc3c(c2)NC(=O)CC3)C1 [I-C2, 7-(4-(9-methoxy-3,4-dihydropyrazino[1,2-a]indol-2(1H)-yl)butoxy)-3,4-dihydroquinolin-2(1H)-one] | – | – | 3340 ± 629 | 4.09 ± 1.6 | 1.51 ± 0.3 | 2790 ± 842 | 19.1 ± 6.8 | 1.79 ± 1.1 | 1.38 ± 0.3 | 7730 ± 467 | 82.4 ± 5 | 5.46 ± 0.09 | 1310 ± 701 | 0.33 ± 0.14 | –
